Positions count from the first letter of the chain named. Read-outs that look alike come from different tables or passages of the source. Ends that are not written are not given here. linker L1 (45 aa) = not defined here
Legend:
Kv1 channels = conditions: ref 17; cited from earlier work
Excerpt: Consequently, our flow cytometry approach can be used to screen unlabeled small organic blockers for their binding with the external lining of the pore. If necessary, FP-peptide blockers can be substituted in the presented assay by small fluorescently labeled ligands, and their affinities can be estimated by direct titration, using the approach ...

KcsA-Kv1.3-RFP [1] = test: Displacement of GFP-labeled toxins by unlabeled toxins on spheroplasts, flow cytometry; type: binding; conditions: for Kd: displacement of AgTx2-GFP, Cheng-Prusoff, Mean ± SD, read-out: Apparent dissociation constant (Kap)
Method: (§1) Spheroplasts were prepared according to the previously developed protocol. Briefly, E. coli cells (BL21 (DE3) strain) transformed with pET28a-KcsA-Kv1.3-RFP plasmid were cultivated in a minimal M9 medium at 37 °C up to OD560 = 0.8, then induced with 50 μM IPTG and further grown for 18 h. Cells were harvested by centrifugation (5000× g, 10 min, 4 °C), incubated in buffer A (10 mM Tris–HCl, pH 8.0, 0.5 m sucrose) containing lysozyme (20 μg/mL) for 7 min on ice, then diluted twofold with buffer B (10 mM Tris–HCl, pH 8.0, 0.3 mM ethylenediamine tetraacetic acid) and further incubated for 20 min. Then MgCl2 was added to a final concentration of 10 mM to stabilize the spheroplasts. Obtained in this way, the spheroplast suspension has OD560 of about 0.5 and was diluted for binding assay as described further.
(§2) For ligand binding analysis, a series of ligand dilutions were prepared in 12 × 75 mm flow cytometry test tubes. For this, 45 µL of toxin solution with a ten times higher concentration than the maximal concentration on titration curve was prepared. This solution was serially diluted with 3.16-fold step (13.9 µL of toxin solution + 30 µL buffer). These toxin dilutions were supplemented with 270 µL of spheroplast suspension at 10^6 cells/mL to give 300 µL final reaction mixtures. For analysis of displacement of GFP-labeled toxins by unlabeled toxins, spheroplast suspensions were supplemented with 1.1× concentration of GFP-labeled toxin before mixing with unlabeled toxin dilutions. All dilutions were made in a binding buffer: 0.25 M sucrose, […], 2 mM KCl, 50 mM NaCl, 10 mM MgCl2, 0.2% BSA and 50 mM Tris–HCl, pH 7.5.
(§3) To ensure equilibrium conditions, we analyzed samples after 90–120 min of incubation without removing toxins. Data acquisition was carried out with FC-500 flow cytometer (Beckman Coulter, Brea, CA, USA) using 488 nm excitation for both GFP and RFP and fluorescence detection with FL1 (505–545 nm) and FL3 (610–630 nm) channels for GFP and RFP, respectively. To minimize background fluorescence, samples were run at low speed that gave approx. 100–500 events/s. Events were triggered by side scatting (SSC) so that RFP-labeled cells constituted approx. 30% of events (Figure 2). Remaining events were also present in the samples of filtered binding buffer without cells, so were likely to be related to system noise (either electronic or optical) but not to the dim spheroplasts.
(§4) Automated data analysis was performed by a dedicated script after pre-processing with commercial software. The script was available in user-friendly Jupyter notebook format where data were processed stepwise, and user input-output was realized through an internet browser. This script is designed to process multiple datasets at once and can be easily adjusted for someone’s actual needs.
Initial preprocessing was done with used FlowJo v10 software (Treestar Inc., Wilmington, DE, USA). This was used for gating on cells by forward and side scatter, followed by gating of RFP-positive events (Figure 1) and exporting of gated data in FCS format. This step was preferable since it allowed one to convert data into a conventional FCS format (our flow cytometer import data in LMD file format) and to filter out off-target events such as system noise, cell debris, clumped and untransfected cells (without Kv1.3-RFP in our case). We also created a script for this preprocessing but found it more complicated and less robust than commercial software. […]

KcsA-Kv1.3 = conditions: ref Our Previous Data (Table 1); cited from earlier work
Method: (§5) Table 1 Kd values obtained by direct titration of GFP-toxins or by their displacement with unlabeled ones and their comparison to our previous and literature data. | column: Dissociation Constants, nM * / Our Previous Data || Our approach was evaluated using several Kv1.3 ligands with known dissociation constants. These are unlabeled recombinant channel blockers from scorpion venom, AgTx2, ChTx, KTx and labeled GFP-tagged chimeras AgTx-GFP and ChTx-GFP. […] This is close to the values reported earlier: 0.21 nM for AgTx2-GFP in our system and 1.8–2.6 nM for ChTx (Table 1).

Kv1.3 = conditions: cited from earlier work
Method: as §5, with “Kd or IC50,” for “Dissociation Constants,”, “nM” for “nM *”, “Literature” for “Our Previous”

[2] = tested on: hybrid Kv1-KcsA channels expressed in the E. coli membrane; conditions: laser scanning confocal microscopy, competitive binding; cited from earlier work
Excerpt: In order to estimate the possibilities and limitations of the assay, the molecular details of blocker interaction with a natural and chimeric channel should be considered. The common feature of the peptide blocker binding is an occlusion of the pore with the side chain of a lysine residue, which is accompanied by the formation of multiple bonds between the peptide and amino acid residues surrounding the pore. Since the pore occlusion is the essential feature of any Kv1-channel blocker interacting with a channel at the extracellular side, the binding sites of peptide blockers and sm ...

KcsA-Kv1.3-RFP [3] = test: Direct titration of GFP-labeled toxins on spheroplasts by flow cytometry; type: binding
Method: as §1, §2, §3, §4
Initial preprocessing was done with used FlowJo v10 software (Treestar Inc., Wilmington, DE, USA). This was used for gating on cells by forward and side scatter, followed by gating of RFP-positive events (Figure 1) and exporting of gated data in FCS format. This step was preferable since it allowed one to convert data into a conventional FCS format (our flow cytometer import data in LMD file format) and to filter out off-target events such as system noise, cell debris, clumped and untransfected cells (without Kv1.3-RFP in our case). We also created a script for this preprocessing but found it more complicated and less robust than commercial software.
Filtered data were processed stepwise by a dedicated script, written in the Python programming language and available as a Jupyter notebook for running either on a local machine or in a kaggle data cloud (https://www.kaggle.com/georgesharonov/fcsgroupfit, accessed and executed on 14 November 2021). Data processing workflow was designed for high throughput analysis by processing all similar data in a single script execution. The processing steps were detailed within the notebook. […]

[4] = target: T1, KcsA-Kv1.3 hybrid potassium channel tagged with a red fluorescent protein (TagRFP) (Homotetramer. Turret swap limits are not printed: taken from the known KcsA-Kv1.3 chimera design (ref. 8), KcsA 52-64 replaced by the gap-free aligned Kv1.3 segment (the same stretch is expected in mo)); test: flow cytometry on cells; conditions: one partner purified
T1 chain: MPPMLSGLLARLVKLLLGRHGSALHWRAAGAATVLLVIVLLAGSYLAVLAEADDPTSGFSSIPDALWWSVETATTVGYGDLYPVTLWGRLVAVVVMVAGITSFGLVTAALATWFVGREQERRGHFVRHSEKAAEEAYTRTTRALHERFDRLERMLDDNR

[5] = target: T1, KcsA-Kv1.3 hybrid potassium channel …; test: flow cytometry on cells; same direct titration data; conventional analysis: mean or median of the RFP-positive minus the RFP-negative population; no saturation up to 100 nM, approach called inconsistent by the authors; conditions: one partner purified
[6] = target: T1, KcsA-Kv1.3 hybrid potassium channel …; test: flow cytometry on cells; same direct titration data; slope of GFP against RFP by linear fit of all RFP-positive events, one-site fit; conditions: one partner purified

Molecule: Nc1ccncc1 [4-aminopiridine]
- inhibition of Kv1 channels (Kv1 channels): inhibit Kv1 channels from the inside of the cell

Molecule: CC[C@H](C)[C@@H]1NC(=O)[C@@H]2CSSC[C@@H]3NC(=O)[C@H](CCCCN)NC(=O)[C@H](CCCNC(=N)N)NC(=O)[C@H](CC(N)=O)NC(=O)[C@H](CCSC)NC(=O)[C@H](CSSC[C@H](NC(=O)[C@H](CO)NC(=O)[C@@H](NC(=O)[C@H](CC(N)=O)NC(=O)[C@@H](NC(=O)[C@@H]4CCCN4C(=O)[C@@H](NC(=O)CN)C(C)C)[C@@H](C)CC)C(C)C)C(=O)N[C@@H]([C@@H](C)O)C(=O)NCC(=O)N[C@@H](CO)C(=O)N4CCC[C@H]4C(=O)N[C@@H](CCC(N)=O)C(=O)N2)NC(=O)[C@H](CCCCN)NC(=O)CNC(=O)[C@H](Cc2ccccc2)NC(=O)[C@H](CCCNC(=N)N)NC(=O)[C@H](CCSC)NC(=O)CNC(=O)[C@H](C)NC(=O)[C@H](CC(=O)O)NC(=O)[C@H](CCCCN)NC(=O)[C@H](CSSC[C@@H](C(=O)N[C@H](C(=O)N2CCC[C@H]2C(=O)N[C@@H](CCCCN)C(=O)O)[C@@H](C)O)NC(=O)[C@H](Cc2c[nH]cn2)NC3=O)NC(=O)[C@@H]2CCCN2C(=O)[C@H](CCCCN)NC1=O [AgTx2, agitoxin 2]
- inhibition of binding of labeled ligands by excess unlabeled ligand (KcsA-Kv1.3-RFP [1]; 100 nM unlabeled AgTx2): completely inhibited
- IC50 (KcsA-Kv1.3-RFP [1]; displacement of 1 nM AgTx2-GFP, Figure 4B curve, read-out: IC50 (displacement of 50% of the labeled ligand)): 0.7 nM
- Kd (KcsA-Kv1.3-RFP [1]; n = 2): 0.1 ± 0.02 nM
- fold by which binding constant is lower than that of the labeled variant (KcsA-Kv1.3-RFP [1]; unlabeled toxin vs its GFP-labeled variant): 2–4 times
- Kd (KcsA-Kv1.3): 0.21 nM
- Kd or IC50 (literature) (Kv1.3; ref 8): 6.4 nM
- Kd or IC50 (literature) (Kv1.3; ref 18): 0.004 nM
- Kd or IC50 (literature) (Kv1.3; ref 19): 0.2 nM

Molecule: CC[C@H](C)[C@H](NC(=O)[C@H](CCC(=O)O)NC(=O)[C@@H](NC(=O)CN)C(C)C)C(=O)N[C@@H](CC(N)=O)C(=O)N[C@H](C(=O)N[C@@H](CCCCN)C(=O)N[C@H]1CSSC[C@@H]2NC(=O)[C@H](CCCCN)NC(=O)CNC(=O)[C@H](Cc3ccccc3)NC(=O)[C@H](CCCNC(=N)N)NC(=O)[C@H](CCSC)NC(=O)CNC(=O)[C@H](C)NC(=O)[C@H](CC(=O)O)NC(=O)[C@H](CCCCN)NC(=O)[C@@H]3CSSC[C@@H](C(=O)N[C@H](C(=O)N4CCC[C@H]4C(=O)N[C@@H](CCCCN)C(=O)O)[C@@H](C)O)NC(=O)[C@H](Cc4c[nH]cn4)NC(=O)[C@H](CSSC[C@H](NC(=O)[C@H](CCC(N)=O)NC(=O)[C@@H]4CCCN4C(=O)[C@H](CO)NC(=O)CNC(=O)[C@H](CO)NC1=O)C(=O)N[C@@H](CC(C)C)C(=O)N[C@@H](CCCCN)C(=O)N1CCC[C@H]1C(=O)N3)NC(=O)[C@H](CCCCN)NC(=O)[C@H](CCCNC(=N)N)NC(=O)[C@H](CC(N)=O)NC(=O)[C@H](CCSC)NC2=O)C(C)C [KTx, kaliotoxin 1]
- Kd (KcsA-Kv1.3-RFP [1]; n = 3): 0.04 ± 0.02 nM
- Kd (KcsA-Kv1.3): 0.78 nM
- Kd or IC50 (literature) (Kv1.3; ref 21): 0.65 nM
- Kd or IC50 (literature) (Kv1.3; ref 22): 0.02 nM
- Kd or IC50 (literature) (Kv1.3; ref 23): 0.1 to 2 nM

Molecule: CC(C)/N=c1\cc2n(-c3ccc(Cl)cc3)c3ccccc3nc-2cc1Nc1ccc(Cl)cc1 [clofazimine]
- inhibition of Kv1 channels (Kv1 channels): inhibit Kv1 channels from the inside of the cell

Molecule: CC[N+](CC)(CC)CC [tetraethylammonium]
- competitive ligand for Kv1-KcsA hybrid channels [2]: competitive ligand

Molecule: AgTx2-GFP: AgTx2 tagged N-terminally with eGFP, moieties separated by a 45-aa linker L1; fluorescent probe ({eGFP-linker L1 (45 aa)}-GVPINVSCTGSPQCIKPCKDAGMRFGKCMNRKCHCTPK; ends and bridges not checked)
- Slope, nonspecific binding (KcsA-Kv1.3-RFP [3]; 1 nM labeled toxin + 100 nM AgTx, fitting of all events): 0.49
- Slope, nonspecific binding (KcsA-Kv1.3-RFP [3]; 1 nM labeled toxin + 100 nM AgTx, fitting of reduced data): 0.23
- Slope (proportional to occupied receptor fraction) (KcsA-Kv1.3-RFP [3]; 1 nM labeled toxin, fitting of all events): 0.88
- Slope (proportional to occupied receptor fraction) (KcsA-Kv1.3-RFP [3]; 1 nM labeled toxin, fitting of reduced data): 0.82
- Slope, nonspecific binding (KcsA-Kv1.3-RFP [3]; 10 nM labeled toxin + 100 nM AgTx, fitting of all events): 0.54
- Slope (proportional to occupied receptor fraction) (KcsA-Kv1.3-RFP [3]; 10 nM labeled toxin, fitting of all events): 0.95
- Slope (proportional to occupied receptor fraction) (KcsA-Kv1.3-RFP [3]; 10 nM labeled toxin, fitting of reduced data): 0.9
- Kd (KcsA-Kv1.3): 0.21 nM

B1: agitoxin 2 tagged N-terminally with eGFP (ligand)
chain: GVPINVSCTGSPQCIKPCKDAGMRFGKCMNRKCHCTPK
notes: The analogous ChTx-GFP was purified on Ni-NTA, so a His tag is likely here too; also called AgTx2-GFP; AgTx-GFP; source: design and production described earlier [14]; (plasmid pET23d-GFP-L1-AgTx2); not shown: eGFP (with the 45-aa linker L1), N-terminal, kept
- Kd [4]: 0.2 nM
- Kd by the conventional mean/median analysis, which the authors reject [5]: 6 nM

B2: kaliotoxin 1 (peptide)
chain: B1 chain with P3E, S7K, T9S, I15L
notes: also called KTx; source: recombinant, produced as described earlier [12] from plasmid pET23d-MalE-L1-KTx
- Kd [4]: 0.04 nM

B3: agitoxin 2 (peptide)
chain: B1 chain
notes: also called AgTx2; source: recombinant, produced as described earlier [12] from plasmid pET23d-MalE-L1-AgTx2
- Kd [4]: 0.1 nM

B4: charybdotoxin tagged N-terminally with eGFP (ligand)
chain: QFTNVSCTTSKECWSVCQRLHNTSRGKCMNKKCRCYS
notes: also called ChTx-GFP; GFP-L1-ChTx; source: E. coli Rosetta-gami (DE3) pLysS, pET23d-GFP-L1-ChTx, purified (Ni-NTA, PD-10 desalting); not shown: eGFP (with the linker L1), N-terminal, kept
- Kd [6]: 0.86 nM
- Kd by the conventional mean/median analysis, which the authors reject [5]: 32 nM

From publication PMC8614864, “Bioengineered System for High Throughput Screening of Kv1 Ion Channel Blockers” (Bioengineering, 2021)
